Target: SARS-CoV-1 M^pro (Severe acute respiratory syndrome-related coronavirus, UniProt P0C6U8)
Assay: biochemical

SMILES: CCOC(=O)/C=C/[C@H](C[C@@H]1CCNC1=O)NC(=O)[C@@H](CC(=O)[C@@H](NC(=O)c1cc(C)on1)C(C)C)Cc1ccc(F)cc1 [rupintrivir, 4-{2-(4-fluoro-benzyl)-6-methyl-5-[(5-methyl-isoxazole-3-carbonil)-amino]-4-oxo-heptanoylamino}-5-(2-oxo-pyrrolidin-3-yl)-pentanoicacidethylester]
- IC50: 66 µM
